# Experimental data reported in ChEMBL document CHEMBL1156829 (Proc Natl Acad Sci U S A, 2008).
# How the values were obtained:
# Plasmodium falciparum [1] = experiment: NOVARTIS: Inhibition of Plasmodium falciparum 3D7 (drug-susceptible) proliferation in erythrocyte-based infection assay; format: functional, organism-based; conditions: Plasmodium falciparum, 3D7
# [2] = NOVARTIS: Cytotoxicity against human hepatocellular carcinoma cell line (Huh7); format: toxicity, cell-based, Huh-7; conditions: Huh7 cells (hepatocellular carcinoma cell line)
# Plasmodium falciparum [3] = experiment: NOVARTIS: Inhibition of Plasmodium falciparum W2 (drug-resistant) proliferation in erythrocyte-based infection assay; format: functional, organism-based; conditions: Plasmodium falciparum, W2; read-out: EC50
SMILES,EC50 (Plasmodium falciparum [1]) [nM],CC50 [2] [nM],EC50 (Plasmodium falciparum [3]) [nM]
Oc1ccc(Cl)cc1CNc1nc2ccccc2[nH]1,921,43500,768
CCOC(=O)C1=C(C)NC2=C(C(=O)CCC2)C1c1ccc([N+](=O)[O-])cc1 (centres undefined),902,> 100000,570
COC(=O)C1=C(C)NC2=C(C(=O)CC(c3ccc(OC)c(OC)c3)C2)C1c1cccs1 (centres undefined),130,> 100000,70.9
CCOc1ccc2[nH]c(=O)c(C(c3nnnn3CCOC)N3CCCC3)cc2c1 (centres undefined),> 12500,> 100000,1050
CN(CCCNc1ccnc2cc(Cl)ccc12)S(=O)(=O)c1ccc([N+](=O)[O-])cc1,240,> 11100,217
COc1ccc2c(c1)C=C([C@@H]1C[C@H]3CN(c4ccccc4)C(=O)[C@]34CCCN14)CO2,588,> 100000,289
C=C[C@H]1CN2CC[C@H]1C[C@@H]2[C@@H](OC(C)=O)c1ccnc2ccccc12,666,> 10000,157
CC1C(Br)C(=O)C(Br)C(C)C12CCCC2 (centres undefined),> 1250,> 10000,> 871
CCCCCCCc1cc(O)c2c3c(c(=O)oc2c1)CCC(C)C3 (centres undefined),1210,> 100000,1720
S=C(NCc1ccco1)NC1CC2CCC(C1)N2Cc1ccccc1 (centres undefined),865,> 100000,2240
O=C(c1ccc([N+](=O)[O-])cc1[N+](=O)[O-])N1CCCCC1,> 12500,> 100000,4860
O=C(O)c1cccc(NC(=O)c2ccc(N3C(=O)c4ccc(C(=O)Nc5cccc(C(=O)O)c5)cc4C3=O)cc2)c1,> 12500,> 100000,1140
O=C(Nc1cc(C(=O)N2CCC(Cc3ccccc3)CC2)ccc1N1CC2CC(C1)c1cccc(=O)n1C2)c1cccs1 (centres undefined),74.4,49700,64.4
COc1cccc2c1[C@@H](OC)[C@@]13O[C@]1(C2=O)[C@H](O)[C@@H](C)[C@](O)(C(=O)[C@@H]1O[C@H]1C)[C@H]3O,264,2820,226
COc1cc2c(cc1O)CC[n+]1cc3c(OC)c(OC)ccc3cc1-2 [JATRORRHIZINE CHLORIDE],939,8940,1660
C[n+]1ccc(C=Cc2ccccc2F)c2ccccc21,57.6,81900,78.1
CC1CCCCN1CCCNc1ncc(C(=O)NCCc2ccccc2)c(NCC2CCCCC2)n1 (centres undefined),602,> 10000,1200

SMILES,EC50 (Plasmodium falciparum [1]) [nM],CC50 [2] [nM],EC50 (Plasmodium falciparum [3]) [nM]
CCOC(=O)C1=C(C)NC2=C(C(=O)C(C(=O)OCC)C(c3ccccc3OC)C2)C1c1ccc(Cl)cc1 (centres undefined),5420,> 100000,1000
COC(=O)c1c(-c2c(F)cccc2Cl)noc1/C=C/Nc1ccccc1,272,> 10000,191
N#Cc1c(N)nc(SCC(=O)c2ccc(Cl)cc2)c(C#N)c1-c1ccco1,2280,> 100000,595
COc1ccc(/C=C2\SC(=Nc3ccccc3OC)NC2=O)cc1,249,> 10000,106
Cc1cccc(C)c1-n1c(SCc2cccc(F)c2)nc2c(sc(=S)n2-c2c(C)cccc2C)c1=O,5160,> 100000,728
CN(CCCNc1ccnc2cc(Cl)ccc12)S(=O)(=O)c1cc(Cl)ccc1Cl,398,> 12200,251
CN(CCCNc1ccnc2cc(Cl)ccc12)C(=O)c1ccc(C(C)(C)C)cc1,81.2,3890,46.5
Cc1ccc(C2(C)CC(C)(C)N(C(=O)Cc3ccccc3)c3ccc(C(c4ccccc4)(c4ccccc4)c4ccccc4)cc32)cc1 (centres undefined),4790,> 100000,5680
CN(C)CCCNc1ccnc2cc(Cl)ccc12,76.9,> 10000,76.3
Cn1nc(C(C)(C)C)cc1C(=O)N1CCCN1C(=O)CNC(=O)c1ccco1,> 335,> 10000,> 1250
Cn1c(-c2ccc([N+](=O)[O-])cc2)[n+](C)c2ccccc21,1310,> 100000,376
O=C1NCCN1CCNS(=O)(=O)c1cc(C(F)(F)F)cc(C(F)(F)F)c1,1200,> 10000,786
O=C(c1ccncc1)N1N=C(C(F)(F)F)CC1(O)c1cccc([N+](=O)[O-])c1 (centres undefined),> 1220,> 10000,> 1680
Cc1oc2c(cc(NS(=O)(=O)c3ccc(F)cc3)c3ccccc32)c1C(=O)OCc1ccccc1,> 1430,> 100000,> 12500
COc1ccc(NC(=O)Cn2c(C)c(C=O)c3ccccc32)cc1,1450,> 100000,1770
C[n+]1ccc(C=Cc2ccc(Br)cc2)cc1,638,> 100000,205
